From US8889712B2, “IAP antagonists” (Bristol-Myers Squibb Company, priority 2012, dated 2014)
Like-named read-outs stand apart in the source and are kept apart here.

Tests used:
XIAP BIR2-3 = target: T1, XIAP BIR2-3 (Homo sapiens, UniProt P98170, C202A/C213G); experiment: XIAP-BIR2-3 dimeric SMAC Peptide Homogeneous Time Resolved Fluorescence (HTRF) Assay; format: binding
T1 construct: His-BIR2-3 (125-356, C202A/C213G, XIAP)
Protocol: B. […] Assays were performed in black, flat-bottom, 384-well plates. […] Compounds were dissolved at 3 mM in dimethylsulfoxide (DMSO) and evaluated at eleven serially diluted concentrations. IC50 and Ki values were derived by non-linear regression analysis.

XIAP BIR3 = target: T2, XIAP BIR3 (Homo sapiens, UniProt P98170); experiment: XIAP-BIR3/SMAC Homogeneous Time Resolved Fluorescence (HTRF) Assay; format: binding
T2 construct: His-BIR3 (241-356, XIAP)
How it was run: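 Competition HTRF between XIAP-BIR3 and SMAC; reaction 60 min at room temperature, then anti-6×His-terbium Fab detection for a further 30 min.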

[1] = 0.5 nM N-His-BIR2-3 (125-356, C202A/C213G, XIAP), 20 nM fluorescein labeled dimeric SMAC peptide, HTRF signal, read-out: XIAP BIR2-3 IC50
[2] = 1 nM N-His-BIR3 (241-356, XIAP), 5 nM fluorescein labeled SMAC peptide, HTRF signal, read-out: XIAP BIR3 IC50

T2 sequence (P98170 241-356): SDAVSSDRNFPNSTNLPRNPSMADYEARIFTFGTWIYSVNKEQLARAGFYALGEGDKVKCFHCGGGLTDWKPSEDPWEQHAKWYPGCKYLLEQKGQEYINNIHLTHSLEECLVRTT
T1 sequence (P98170 125-356 C202A/C213G): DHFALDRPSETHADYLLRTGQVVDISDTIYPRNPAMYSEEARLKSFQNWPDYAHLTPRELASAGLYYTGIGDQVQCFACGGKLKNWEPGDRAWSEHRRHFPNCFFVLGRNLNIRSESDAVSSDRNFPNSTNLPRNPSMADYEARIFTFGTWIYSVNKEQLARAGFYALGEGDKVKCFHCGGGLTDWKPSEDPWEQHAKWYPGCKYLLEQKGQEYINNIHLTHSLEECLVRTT

IC50 (XIAP BIR2-3; [1]) | IC50 (XIAP BIR3; [2]) | Structure (SMILES) | IC50 (XIAP BIR2-3) | IC50 (XIAP BIR3)
– | – | CN[C@@H](C)C(=O)N[C@H](C(=O)N1C[C@@H](c2ccc3c(c2)CN(C(=O)[C@@H](NC(=O)[C@H](C)NC)C(C)(C)C)[C@H](C(=O)N[C@@H]2CCCc4ccccc42)C3)C[C@H]1C(=O)N[C@@H](Cc1ccccc1)C(=O)NS(=O)(=O)c1ccccc1)C(C)(C)C [Example 48, (S)-2-((S)-3,3-Dimethyl-2-((S)-2-(methylamino)propanamido)butanoyl)-7-((3R,5S)-1-((S)-3,3-dimethyl-2-((S)-2-(methylamino)propanamido)butanoyl)-5-(((S)-1-oxo-3-phenyl-1-(phenylsulfonamido)propan-2-yl)carbamoyl)pyrrolidin-3-yl)-N-((R)-1,2,3,4-tetrahydronaphthalen-1-yl)-1,2,3,4-tetrahydroisoquinoline-3-carboxamide] | 0.7 nM | 0.8 nM
0.5 nM | 0.4 nM | CN[C@@H](C)C(=O)N[C@H](C(=O)N1C[C@@H](c2ccc3c(c2)CN(C(=O)[C@@H](NC(=O)[C@H](C)NC)C(C)(C)C)[C@H](C(=O)N[C@@H]2CCCc4ccccc42)C3)C[C@H]1C(=O)N[C@@H](Cc1ccccc1)C(=O)NS(=O)(=O)c1ccc2ccccc2c1)C(C)(C)C [Example 49, (S)-2-((S)-3,3-Dimethyl-2-((S)-2-(methylamino)propanamido)butanoyl)-7-((3R,5S)-1-((S)-3,3-dimethyl-2-((S)-2-(methylamino)propanamido)butanoyl)-5-(((S)-1-(naphthalene-2-sulfonamido)-1-oxo-3-phenylpropan-2-yl)carbamoyl)pyrrolidin-3-yl)-N-((R)-1,2,3,4-tetrahydronaphthalen-1-yl)-1,2,3,4-tetrahydroisoquinoline-3-carboxamide] | – | –
1.2 nM | 0.9 nM | CN[C@@H](C)C(=O)N[C@H](C(=O)N1C[C@@H](c2ccc3c(c2)CN(C(=O)[C@@H](NC(=O)[C@H](C)NC)C(C)(C)C)[C@H](C(=O)N[C@@H]2CCCc4ccccc42)C3)C[C@H]1C(=O)N[C@@H](Cc1ccccc1)C(=O)NS(=O)(=O)C1CC1)C(C)(C)C [Example 50, (S)-7-((3R,5S)-5-(((S)-1-(Cyclopropanesulfonamido)-1-oxo-3-phenylpropan-2-yl)carbamoyl)-1-((S)-3,3-dimethyl-2-((S)-2-(methylamino)propanamido)butanoyl)pyrrolidin-3-yl)-2-((S)-3,3-dimethyl-2-((S)-2-(methylamino)propanamido)butanoyl)-N-((R)-1,2,3,4-tetrahydronaphthalen-1-yl)-1,2,3,4-tetrahydroisoquinoline-3-carboxamide] | – | –
9.6 nM | 19.4 nM | CCNC(=O)[C@H](Cc1ccccc1)NC(=O)[C@@H]1C[C@H](c2ccc3c(c2)CN(C(=O)[C@@H](NC(=O)[C@H](C)NC)C(C)(C)C)[C@H](C(=O)N[C@@H]2CCCc4ccccc42)C3)CN1C(=O)[C@@H](NC(=O)[C@H](C)NC)C(C)(C)C [Example 51, (S)-2-((S)-3,3-Dimethyl-2-((S)-2-(methylamino)propanamido)butanoyl)-7-((3R,5S)-1-((S)-3,3-dimethyl-2-((S)-2-(methylamino)propanamido)butanoyl)-5-(((S)-1-(ethylamino)-1-oxo-3-phenylpropan-2-yl)carbamoyl)pyrrolidin-3-yl)-N-((R)-1,2,3,4-tetrahydronaphthalen-1-yl)-1,2,3,4-tetrahydroisoquinoline-3-carboxamide] | – | –
1.2 nM | 3.4 nM | CN[C@@H](C)C(=O)N[C@H](C(=O)N1C[C@@H](c2ccc3c(c2)CN(C(=O)[C@@H](NC(=O)[C@H](C)NC)C(C)(C)C)[C@H](C(=O)N[C@@H]2CCCc4ccccc42)C3)C[C@H]1C(=O)N[C@@H](Cc1ccccc1)C(=O)Nc1nncs1)C(C)(C)C [Example 52, (S)-7-((3R,5S)-5-(((S)-1-((1,3,4-Thiadiazol-2-yl)amino)-1-oxo-3-phenylpropan-2-yl)carbamoyl)-1-((S)-3,3-dimethyl-2-((S)-2-(methylamino)propanamido)butanoyl)pyrrolidin-3-yl)-2-((S)-3,3-dimethyl-2-((S)-2-(methylamino)propanamido)butanoyl)-N-((R)-1,2,3,4-tetrahydronaphthalen-1-yl)-1,2,3,4-tetrahydroisoquinoline-3-carboxamide] | – | –
86.9 nM | 53.9 nM | CN[C@@H](C)C(=O)N[C@H](C(=O)N1C[C@@H](c2ccc3c(c2)CN(C(=O)[C@@H](NC(=O)[C@H](C)NC)C(C)(C)C)[C@H](C(=O)N[C@@H]2CCCc4ccccc42)C3)C[C@H]1C(=O)N[C@@H](Cc1ccccc1)C(=O)N(C)CCC(C)C)C(C)(C)C [Example 53, (S)-2-((S)-3,3-Dimethyl-2-((S)-2-(methylamino)propanamido)butanoyl)-7-((3R,5S)-1-((S)-3,3-dimethyl-2-((S)-2-(methylamino)propanamido)butanoyl)-5-(((S)-1-(isopentyl(methyl)amino)-1-oxo-3-phenylpropan-2-yl)carbamoyl)pyrrolidin-3-yl)-N-((R)-1,2,3,4-tetrahydronaphthalen-1-yl)-1,2,3,4-tetrahydroisoquinoline-3-carboxamide] | – | –
2.9 nM | 6.8 nM | CN[C@@H](C)C(=O)N[C@H](C(=O)N1C[C@@H](c2ccc3c(c2)CN(C(=O)[C@@H](NC(=O)[C@H](C)NC)C(C)(C)C)[C@H](C(=O)N[C@@H]2CCCc4ccccc42)C3)C[C@H]1C(=O)N[C@@H](Cc1ccccc1)C(=O)N(C)CCc1ccccn1)C(C)(C)C [Example 54, (S)-2-((S)-3,3-Dimethyl-2-((S)-2-(methylamino)propanamido)butanoyl)-7-((3R,5S)-1-((S)-3,3-dimethyl-2-((S)-2-(methylamino)propanamido)butanoyl)-5-(((S)-1-(methyl(2-(pyridin-2-yl)ethyl)amino)-1-oxo-3-phenylpropan-2-yl)carbamoyl)pyrrolidin-3-yl)-N-((R)-1,2,3,4-tetrahydronaphthalen-1-yl)-1,2,3,4-tetrahydroisoquinoline-3-carboxamide] | – | –
8.5 nM | 37.7 nM | CN[C@@H](C)C(=O)N[C@H](C(=O)N1C[C@@H](c2ccc3c(c2)CN(C(=O)[C@@H](NC(=O)[C@H](C)NC)C(C)(C)C)[C@H](C(=O)N[C@@H]2CCCc4ccccc42)C3)C[C@H]1C(=O)N[C@@H](Cc1ccccc1)C(=O)N(C)CCOC)C(C)(C)C [Example 55, (S)-2-((S)-3,3-Dimethyl-2-((S)-2-(methylamino)propanamido)butanoyl)-7-((3R,5S)-1-((S)-3,3-dimethyl-2-((S)-2-(methylamino)propanamido)butanoyl)-5-(((S)-1-((2-methoxyethyl)(methyl)amino)-1-oxo-3-phenylpropan-2-yl)carbamoyl)pyrrolidin-3-yl)-N-((R)-1,2,3,4-tetrahydronaphthalen-1-yl)-1,2,3,4-tetrahydroisoquinoline-3-carboxamide] | – | –
– | – | CN[C@@H](C)C(=O)N[C@H](C(=O)N1C[C@@H](c2ccc3c(c2)CN(C(=O)[C@@H](NC(=O)[C@H](C)NC)C(C)(C)C)[C@H](C(=O)N[C@@H]2CCCc4ccccc42)C3)C[C@H]1C(=O)N[C@@H](Cc1ccccc1)C(=O)NC(C)C)C(C)(C)C [Example 56, (S)-2-((S)-3,3-Dimethyl-2-((S)-2-(methylamino)propanamido)butanoyl)-7-((3R,5S)-1-((S)-3,3-dimethyl-2-((S)-2-(methylamino)propanamido)butanoyl)-5-(((S)-1-(isopropylamino)-1-oxo-3-phenylpropan-2-yl)carbamoyl)pyrrolidin-3-yl)-N-((R)-1,2,3,4-tetrahydronaphthalen-1-yl)-1,2,3,4-tetrahydroisoquinoline-3-carboxamide] | 2 nM | 8.8 nM
2.6 nM | 9.9 nM | CN[C@@H](C)C(=O)N[C@H](C(=O)N1C[C@@H](c2ccc3c(c2)CN(C(=O)[C@@H](NC(=O)[C@H](C)NC)C(C)(C)C)[C@H](C(=O)N[C@@H]2CCCc4ccccc42)C3)C[C@H]1C(=O)N[C@@H](Cc1ccccc1)C(=O)Nc1ccc(-c2cnco2)cc1)C(C)(C)C [Example 57, (S)-2-((S)-3,3-Dimethyl-2-((S)-2-(methylamino)propanamido)butanoyl)-7-((3R,5S)-1-((S)-3,3-dimethyl-2-((S)-2-(methylamino)propanamido)butanoyl)-5-(((S)-1-((4-(oxazol-5-yl)phenyl)amino)-1-oxo-3-phenylpropan-2-yl)carbamoyl)pyrrolidin-3-yl)-N-((R)-1,2,3,4-tetrahydronaphthalen-1-yl)-1,2,3,4-tetrahydroisoquinoline-3-carboxamide] | – | –
2.3 nM | 7.6 nM | CN[C@@H](C)C(=O)N[C@H](C(=O)N1C[C@@H](c2ccc3c(c2)CN(C(=O)[C@@H](NC(=O)[C@H](C)NC)C(C)(C)C)[C@H](C(=O)N[C@@H]2CCCc4ccccc42)C3)C[C@H]1C(=O)N[C@@H](Cc1ccccc1)C(=O)Nc1cccc(-c2cnco2)c1)C(C)(C)C [Example 58, (S)-2-((S)-3,3-Dimethyl-2-((S)-2-(methylamino)propanamido)butanoyl)-7-((3R,5S)-1-((S)-3,3-dimethyl-2-((S)-2-(methylamino)propanamido)butanoyl)-5-(((S)-1-((3-(oxazol-5-yl)phenyl)amino)-1-oxo-3-phenylpropan-2-yl)carbamoyl)pyrrolidin-3-yl)-N-((R)-1,2,3,4-tetrahydronaphthalen-1-yl)-1,2,3,4-tetrahydroisoquinoline-3-carboxamide] | – | –
